In patent US20170107207A1, “AMINOPYRAZOLONE DERIVATIVE” (DAIICHI SANKYO COMPANY, LIMITED, priority 2014, published 2017) one finds IC50 and GI50 data, which are given here for 15 molecules.

One assay deals with T1, TIP48/TIP49 complex (Homo sapiens, UniProt Q9Y230+Q9Y265).
T1 construct: made in house; host or cells: E. coli
Kind of assay: ATPase assay of TIP48/TIP49 complex (ADP-Glo). The assay is classed as biochemical. Conditions: concentration at which the ATPase activity was inhibited by 50%. From the text:
The ATPase activity of the TIP48/TIP49 complex can be measured by use of an ATPase assay described below in Test Examples 1 and 2. The ATPase activity of the TIP48/TIP49 complex can be measured, as described below in the Test Examples, for example, by using recombinant human TIP48 and TIP49 proteins (hereinafter, referred to as rTIP48 and rTIP49) and ATP in the presence or absence of a test compound and measuring the amount of ADP formed through hydrolysis by the ATPase activity of the TIP48/TIP49 complex, using ADP-Glo. Alternatively, the ATPase activity of the TIP48/TIP49 complex can be measured by a method described in, for example, J. Mol. Biol. 366, 172-179 (2007).
An ATPase assay of a TIP48/TIP49 complex was conducted using rTIP48 and rTIP49. Human TIP48 and TIP49 DNAs were purchased from Open Biosystems. Human TIP48 and TIP49 cDNAs cloned by PCR using the purchased DNAs were each integrated into plasmids for expression in E. coli and expressed in E. coli to obtain rTIP48 and rTIP49.
A test compound was dissolved at 10 mM using DMSO. The solution was diluted to 10 concentrations as 4-fold serial dilutions from 10 mM using DMSO.
A 2×assay buffer (100 mM Tris-HCl, pH 7.5, 100 mM NaCl, 40 mM MgCl2, 2 mM DTT, 20 μM ATP, and 0.2 mg/mL BSA) was dispensed at 24.5 μL/well to a 384-well assay plate.
Test compound solutions were dispensed thereto at 1 μL/well. Subsequently, the solution in each well was mixed using a plate mixer.
rTIP48 and rTIP49 were diluted to a concentration of 50 μg/mL using sterilized water. The diluted solution was dispensed at 24.5 μL/well to the 384-well assay plate. Subsequently, the solution in each well was mixed using a plate mixer (final concentration: 24.5 μg/mL) (concentration of each test compound solution: 200 μM, 50 μM, 12.5 μM, 3.12 μM, 0.78 μM, 0.20 μM, 0.049 μM, 0.012 μM, 0.003 μM, and 0.0007 μM; DMSO concentration: 2%).
After the mixing using the plate mixer, the assay plate was left standing at room temperature for 1.5 hours.
5 μL of the solution in each well was transferred to a white assay plate, and ADP-Glo Reagent from ADP-Glo Kinase Assay (Promega Corp., catalog No. V9101) was dispensed thereto at 5 μL/well. After completion of the reaction, the plate was left standing at room temperature for 40 minutes. Kinase Detection Reagent was further dispensed thereto at 5 μL/well, and the plate was left standing at room temperature for 30 minutes. Then, luminescence intensity was measured using a plate reader.
The ATPase inhibitory activity was calculated according to the expression given below.
The luminescence intensity of a well supplemented with the test compound and the TIP48/TIP49 complex was defined as A. The luminescence intensity of a well supplemented with only the TIP48/TIP49 complex was defined as B. The luminescence intensity of a well supplemented with neither the test compound nor the TIP48/TIP49 complex was defined as C. The ratio between the test compound-supplemented group and the test compound-nonsupplemented group (T/C value) was determined according to the following calculation expression:
The dose-response curve was calculated using GraphPad Prism 4 from the concentration of each of the serially diluted test compounds and the ATPase inhibitory activity (%) at this concentration.

Assay [1] relates to human lymphoma cell line RAMOS cells. Kind of assay: Cell growth inhibition test using RAMOS cell, ATP assay (CellTiter-Glo). In kind it is cell-based. Conditions: cultured 3 days, 50% growth inhibition concentration. Here is the method:
A cell growth inhibition test was carried out by treating human lymphoma cell line RAMOS cells with a test compound for a given period and then counting the number of viable cells by MTT assay or CellTiter-Glo Luminescent Cell Viability Assay (manufactured by Promega Corp.; hereinafter, referred to as ATP assay).
RAMOS cells were inoculated at 4000 cells/40 μL/well to a 384-well plate containing the compound prepared in advance at predetermined concentrations. The cells thus inoculated were cultured at 37° C. for 3 days under 5% CO2. In order to measure a cell survival rate, CellTiter-Glo Reagent was added in an amount corresponding to 1/4 of the amount of the culture solution at the day of cell inoculation and at the final culture date and stirred at room temperature for 2 minutes. Then, luminescence intensity was measured using a plate reader. The cell survival rate was calculated according to the expression given below.
The number of viable cells and luminescence intensity have been confirmed to correlate with each other. Therefore, the rate of cell growth was calculated according to the following expression: Rate of cell growth (T/C %) of a test compound-supplemented well=100×[(B−C)/(A−C)] wherein A represents the luminescence intensity (final culture date) of a test compound-free well; B represents the luminescence intensity (final culture date) of a test compound-containing well; and C represents the luminescence intensity (day of cell inoculation) of a well at the start of contact of the cells with the test compound.
T/C % at each concentration of the test compound was determined. The concentration at which the test compound offered 50% growth rate was calculated as a GI50 value from the growth rates at two points interpolating 50% and the concentrations, and is shown in Table 56.

T1 sequence (Q9Y230 whole entry): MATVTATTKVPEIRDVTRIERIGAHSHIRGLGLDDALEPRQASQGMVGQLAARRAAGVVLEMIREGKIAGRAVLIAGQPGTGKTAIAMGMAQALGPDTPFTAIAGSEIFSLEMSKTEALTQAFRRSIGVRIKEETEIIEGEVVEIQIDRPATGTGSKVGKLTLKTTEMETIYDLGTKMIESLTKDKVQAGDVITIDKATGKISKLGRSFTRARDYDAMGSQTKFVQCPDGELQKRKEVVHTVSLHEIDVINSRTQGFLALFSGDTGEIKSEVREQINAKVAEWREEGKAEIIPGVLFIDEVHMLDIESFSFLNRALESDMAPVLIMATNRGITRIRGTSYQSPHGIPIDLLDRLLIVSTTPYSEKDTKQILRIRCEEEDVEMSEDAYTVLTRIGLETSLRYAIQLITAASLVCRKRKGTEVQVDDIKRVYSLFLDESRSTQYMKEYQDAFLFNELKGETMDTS
T1 sequence (Q9Y265 whole entry): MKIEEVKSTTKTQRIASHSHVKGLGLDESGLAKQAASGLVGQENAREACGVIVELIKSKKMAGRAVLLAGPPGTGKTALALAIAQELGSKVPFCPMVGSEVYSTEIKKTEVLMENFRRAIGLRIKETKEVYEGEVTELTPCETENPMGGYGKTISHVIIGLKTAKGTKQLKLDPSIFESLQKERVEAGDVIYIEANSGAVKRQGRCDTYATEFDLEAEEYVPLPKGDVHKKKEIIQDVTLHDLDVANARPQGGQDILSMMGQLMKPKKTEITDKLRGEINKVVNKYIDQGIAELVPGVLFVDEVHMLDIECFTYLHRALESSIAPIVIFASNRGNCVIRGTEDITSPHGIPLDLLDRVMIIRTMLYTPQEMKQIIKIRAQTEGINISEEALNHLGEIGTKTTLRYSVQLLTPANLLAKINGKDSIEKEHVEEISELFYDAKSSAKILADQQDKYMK

With `Cc1cc2cc(Cl)cc(C(=O)NCC(C)(C)CC(=O)Nc3c(CCCN(C)C)n(C)n(-c4ccccc4)c3=O)c2o1` [Example 65, 5-Chloro-N-[4-({5-[3-(dimethylamino)propyl]-1-methyl-3-oxo-2-phenyl-2,3-dihydro-1H-pyrazol-4-yl}amino)-2,2-dimethyl-4-oxobutyl]-2-methylbenzofuran-7-carboxamide], on TIP48/TIP49 complex, 44 nM corresponded to half-maximal inhibition (IC50). The molecule also yielded a GI50 in assay [1] (Homo sapiens, Ramos, 72 h) of 200 nM.

On to `CCOc1ncc(Cl)cc1NC(=O)CC(C)(C)CC(=O)Nc1c(C(C)OC)n(C)n(-c2ccccc2)c1=O` (stereo not drawn) [Example 126, N-(5-Chloro-2-ethoxy-3-pyridyl)-N′-[5-(1-methoxyethyl)-1-methyl-3-oxo-2-phenyl-2,3-dihydro-1H-pyrazol-4-yl]-3,3-dimethylpentanediamide], for which the IC50 on TIP48/TIP49 complex was 56 nM. In addition, growth in assay [1] (Homo sapiens, Ramos, 72 h) was halved (GI50) at 580 nM.

As to `CCOc1ccc(Cl)cc1C(=O)NCC(C)(C)CC(=O)Nc1c(C[C@H](C)N(C)C)n(C)n(-c2ccccc2)c1=O` [Example 51, 5-Chloro-N-[4-({5-[(2S)-2-(dimethylamino)propyl]-1-methyl-3-oxo-2-phenyl-2,3-dihydro-1H-pyrazol-4-yl}amino)-2,2-dimethyl-4-oxobutyl]-2-ethoxybenzamide], on TIP48/TIP49 complex, half-maximal inhibition (IC50) was put at 71 nM. Also, the GI50 in assay [1] (Homo sapiens, Ramos, 72 h) came out at 140 nM.

On to `CCOc1cc(F)c(Cl)cc1C(=O)NCC(C)(C)CC(=O)Nc1c(CCNC)n(C)n(-c2ccccc2)c1=O` [Example 34, 5-Chloro-N-[2,2-dimethyl-4-({1-methyl-5-[2-(methylamino)ethyl]-3-oxo-2-phenyl-2,3-dihydro-1H-pyrazol-4-yl}amino)-4-oxobutyl]-2-ethoxy-4-fluorobenzamide], for which 56 nM corresponded to half-maximal inhibition at TIP48/TIP49 complex (IC50). This molecule showed a GI50 in assay [1] (Homo sapiens, Ramos, 72 h) of 470 nM.

With `COCOc1cc(F)c(Cl)cc1C(=O)NCC(C)(C)CC(=O)Nc1c(CCN(C)C)n(C)n(-c2ccccc2)c1=O` [Example 29, 5-Chloro-N-[4-({5-[2-(dimethylamino)ethyl]1-methyl-3-oxo-2-phenyl-2,3-dihydro-1H-pyrazol-4-yl}amino)-2,2-dimethyl-4-oxobutyl]-4-fluoro-2-(methoxymethoxy)benzamide], the IC50 at TIP48/TIP49 complex was 48 nM. In assay [1] (Homo sapiens, Ramos, 72 h), this molecule yielded a GI50 of 150 nM.

For `CCOc1ncc(Cl)cc1C(=O)NCC(C)(C)CC(=O)Nc1c(CC(C)(C)N(C)C)n(C)n(-c2ccccc2)c1=O` [Example 57, 5-Chloro-N-[4-({5-[2-(dimethylamino)-2-methylpropyl]-1-methyl-3-oxo-2-phenyl-2,3-dihydro-1H-pyrazol-4-yl}amino)-2,2-dimethyl-4-oxobutyl]-2-ethoxypyridine-3-carboxamide], the IC50 against TIP48/TIP49 complex came out at 70 nM. In assay [1] (Homo sapiens, Ramos, 72 h), this molecule showed a GI50 of 190 nM.

In turn, `CCOc1ccc(Cl)cc1C(=O)NCC(C)(C)CC(=O)Nc1c(CC(C)(C)N(C)C)n(C)n(-c2ccccc2)c1=O` [Example 56, 5-Chloro-N-[4-({5-[2-(dimethylamino)-2-methylpropyl]-1-methyl-3-oxo-2-phenyl-2,3-dihydro-1H-pyrazol-4-yl}amino)-2,2-dimethyl-4-oxobutyl]-2-ethoxybenzamide] displayed an IC50 against TIP48/TIP49 complex of 40 nM. Further, in assay [1] (Homo sapiens, Ramos, 72 h), growth was halved (GI50) at 120 nM.

Molecule `Cc1cc2cc(Cl)cc(C(=O)NCC(C)(C)CC(=O)Nc3c(CCN(C)C)n(C)n(-c4ccccc4F)c3=O)c2o1` [Example 46, 5-Chloro-N-[4-({3-[2-(dimethylamino)ethyl]-1-(2-fluorophenyl)-2-methyl-5-oxo-1,5-dihydro-1H-pyrazol-4-yl}amino)-2,2-dimethyl-4-oxobutyl]-2-methylbenzofuran-7-carboxamide] gave an IC50 against TIP48/TIP49 complex of 81 nM. Besides, the 50% growth inhibitory concentration (GI50) in assay [1] (Homo sapiens, Ramos, 72 h) was determined as 470 nM.

Consider `CCOc1ccc(Cl)cc1C(=O)NCC(C)(C)CC(=O)Nc1c(CCN(C)C)n(C)n(-c2cccc(Cl)n2)c1=O` [Example 47, 5-Chloro-N-(4-{[1-(6-chloro-2-pyridyl)-3-(2-dimethylamino)ethyl]-2-methyl-5-oxopyrazol-4-yl}amino-2,2-dimethyl-4-oxobutyl)-2-ethoxybenzamide], for which, at TIP48/TIP49 complex, half-maximal inhibition (IC50) required 37 nM. This molecule also had a GI50 in assay [1] (Homo sapiens, Ramos, 72 h) of 250 nM.

At TIP48/TIP49 complex, `CCOc1ccc(Cl)cc1C(=O)NCC(C)(C)CC(=O)Nc1c(C(C)OC)n(C)n(-c2ccccc2)c1=O` (stereo not drawn) [Example 125, 5-Chloro-2-ethoxy-N-(4-{[5-(1-methoxyethyl)-1-methyl-3-oxo-2-phenyl-2,3-dihydro-1H-pyrazol-4-yl]amino}-2,2-dimethyl-4-oxobutyl)benzamide] returned an IC50 of 36 nM. The molecule also yielded a GI50 in assay [1] (Homo sapiens, Ramos, 72 h) of 140 nM.

With `CCOc1ncc(Cl)cc1C(=O)NCC(C)(C)CC(=O)Nc1c(C(CN(C)C)OC)n(C)n(-c2ccccc2)c1=O` (single isomer, unassigned; (-)) [Example 82, (−)-5-Chloro-N-[4-({5-[2-(dimethylamino)-1-methoxyethyl]-1-methyl-3-oxo-2-phenyl-2,3-dihydro-1H-pyrazol-4-yl}amino)-2,2-dimethyl-4-oxobutyl]-2-ethoxypyridine-3-carboxamide], at TIP48/TIP49 complex, inhibition was half-maximal at 49 nM (IC50). The molecule also yielded a GI50 in assay [1] (Homo sapiens, Ramos, 72 h) of 370 nM.

Turning to `CCOc1ccc(Cl)cc1C(=O)NCC(C)(C)CC(=O)Nc1c(CC(C)(C)N)n(C)n(-c2ccccc2)c1=O` [Example 55, N-(4-{[5-(2-Amino-2-methylpropyl)-1-methyl-3-oxo-2-phenyl-2,3-dihydro-1H-pyrazol-4-yl]amino}-2,2-dimethyl-4-oxobutyl)-5-chloro-2-ethoxybenzamide], the midpoint of inhibition on TIP48/TIP49 complex, the IC50, lay at 43 nM. In assay [1] (Homo sapiens, Ramos, 72 h), this molecule displayed a GI50 of 170 nM.

`CCOc1ncc(Cl)cc1C(=O)NCC(C)(C)CC(=O)Nc1c(C(C)CN(C)C)n(C)n(-c2ccccc2)c1=O` (stereo not drawn) [Example 71, 5-Chloro-N-[4-({5-[2-(dimethylamino)-1-methylethyl]-1-methyl-3-oxo-2-phenyl-2,3-dihydro-1H-pyrazol-4-yl}amino)-2,2-dimethyl-4-oxobutyl]-2-ethoxypyridine-3-carboxamide] yielded an IC50 against TIP48/TIP49 complex of 90 nM. Further, growth in assay [1] (Homo sapiens, Ramos, 72 h) was halved (GI50) at 420 nM.

Take `CCOc1ncc(Cl)cc1C(=O)NCC(C)(C)CC(=O)Nc1c(C(CN(C)C)OC)n(C)n(-c2ccccc2)c1=O` (single isomer, unassigned; (+)) [Example 83, (+)-5-Chloro-N-[4-({5-[2-(dimethylamino)-1-methoxyethyl]-1-methyl-3-oxo-2-phenyl-2,3-dihydro-1H-pyrazol-4-yl}amino)-2,2-dimethyl-4-oxobutyl]-2-ethoxypyridine-3-carboxamide]: at TIP48/TIP49 complex, inhibition was half-maximal at 65 nM (IC50). Further, the GI50 in assay [1] worked out at 490 nM.

At TIP48/TIP49 complex, `CCOc1ncc(Cl)cc1C(=O)NCC(C)(C)CC(=O)Nc1c(C(CN(C)C)OC)n(C)n(-c2ccccc2)c1=O` (stereo not drawn) [Example 81, 5-Chloro-N-[4-({5-[2-(dimethylamino)-1-methoxyethyl]-1-methyl-3-oxo-2-phenyl-2,3-dihydro-1H-pyrazol-4-yl}amino)-2,2-dimethyl-4-oxobutyl]-2-ethoxypyridine-3-carboxamide] showed an IC50 of 210 nM. The same molecule had a GI50 in assay [1] (Homo sapiens, Ramos, 72 h) of 410 nM.
